Reference: patent publication US9102614B2, “Naphth-2-ylacetic acid derivatives to treat AIDS” (Gilead Sciences, Inc., priority 2010, dated 2015)

Tested on: HIV-IIIb
Assay: Test A: Antiviral Assays in MT4 Cells
Type: cell-based
Conditions: Human immunodeficiency virus 1, IIIB, MT4, 120 h
Method: Test A: Antiviral Assays in MT4 Cells
For the antiviral assay utilizing MT-4 cells, 0.4 μL of […] test concentration of 3-fold serially diluted compound in DMSO was added to 40 μL of cell growth medium (RPMI 1640, 10% FBS, 1% penicillin/Streptomycin, 1% L-Glutamine, 1% HEPES) in each well of 384-well assay plates (10 concentrations) in quadruplicate.
1 mL aliquots of 2×10e6 MT-4 cells are pre-infected for 1 and 3 hrs respectively, @37° C. with 25 μL (MT4) or of either cell growth medium (mock-infected) or a fresh 1:250 dilution of an HIV-IIIb concentrated ABI stock (0.004 m.o.i. for MT4 cells). Infected and uninfected cells are diluted in cell growth medium and 35 uL of 2000 (for MT4) cells is added to each well of the assay plates.
Assay plates were then incubated in a 37° C. incubator. After 5 days of incubation, 25 μl of 2× concentrated CellTiter-Glo™ Reagent (catalog #G7573, Promega Biosciences, Inc., Madison, Wis.) was added to each well of the assay plate. Cell lysis was carried out by incubating at room temperature for 2-3 min and then chemiluminescence was read using the Envision reader (PerkinElmer).

Row | SMILES | EC50 [nM]
1 | Cc1cc2c(C#CCN(C)C)cccc2c(-c2ccc(Cl)cc2)c1C(OC(C)(C)C)C(=O)O (centres unmarked) [Compound 39, 2-tert-Butoxy-2-(1-(4-chlorophenyl)-5-(3-(dimethylamino)prop-1-ynyl)-3-methylnaphthalen-2-yl)acetic acid] | 700

Same assay, conditions: Human immunodeficiency virus 1, IIIB, MT4, 120 h, MT-4 cells infected with HIV-IIIb (0.004 m.o.i.), 5 days of incubation, CellTiter-Glo chemiluminescence readout; read-out: EC50

Row | SMILES | EC50 [nM]
2 | Cc1cc2c(C(N)=O)cc(F)cc2c(-c2ccc3c4c(ccnc24)CCO3)c1[C@H](OC(C)(C)C)C(=O)O (atropisomer, axis not shown) [Compound 155] | 29000
3 | Cc1cc2ccccc2c(C2=CCC(C)(C)CC2)c1[C@H](OC(C)(C)C)C(=O)O [Compound 14, (S)-2-tert-Butoxy-2-(1-(4,4-dimethylcyclohex-1-enyl)-3-methylnaphthalen-2-yl)acetic acid] | 11
4 | Cc1cc2ccc(Cl)cc2c(-c2ccc3c4c(ccnc24)CCO3)c1[C@H](OC(C)(C)C)C(=O)O (atropisomer, axis not shown) [Compound 180] | 29000
5 | CN(C)Cc1cc2ccccc2c(-c2ccc(Cl)cc2)c1[C@H](OC(C)(C)C)C(=O)O [Compound 24, (S)-2-tert-Butoxy-2-(1-(4-chlorophenyl)-3-(dimethylaminomethyl)naphthalen-2-yl)acetic acid] | 29000
6 | Cc1cc2ccc(Cl)cc2c(-c2ccc(Cl)cc2)c1C(OC(C)(C)C)C(=O)O (centres unmarked) [Compound 149, 2-tert-Butoxy-2-(7-chloro-1-(4-chlorophenyl)-3-methylnaphthalen-2-yl)acetic acid] | 200
7 | COc1ccc(Cc2c(OC)ccc3c(-c4ccc(Cl)cc4)c(C(OC(C)(C)C)C(=O)O)c(C)cc23)cc1 (centres unmarked) [Compound 49, 2-tert-Butoxy-2-(1-(4-chlorophenyl)-6-methoxy-5-(4-methoxybenzyl)-3-methylnaphthalen-2-yl)acetic acid] | 650
8 | Cc1cc2ccc(C#CC3CC3)cc2c(-c2ccc(Cl)cc2)c1C(OC(C)(C)C)C(=O)O (centres unmarked) [Compound 75, 2-tert-Butoxy-2-(1-(4-chlorophenyl)-7-(cyclopropylethynyl)-3-methylnaphthalen-2-yl)acetic acid] | 980
9 | Cc1cc2ccc(C#CC3(O)CCCC3)cc2c(-c2ccc(Cl)cc2)c1C(OC(C)(C)C)C(=O)O (centres unmarked) [Compound 73, 2-tert-butoxy-2-(1-(4-chlorophenyl)-7-((1-hydroxycyclopentyl)ethynyl)-3-methylnaphthalen-2-yl)acetic acid] | 130
10 | Cc1cc2ccc(CCC3(O)CCCC3)cc2c(-c2ccc(Cl)cc2)c1C(OC(C)(C)C)C(=O)O (centres unmarked) [Compound 91, 2-tert-butoxy-2-(1-(4-chlorophenyl)-7-(2-(1-hydroxycyclopentyl)ethyl)-3-methylnaphthalen-2-yl)acetic acid] | 250
11 | Cc1cc2c(Cl)cccc2c(-c2ccc(Cl)cc2)c1C(OC(C)(C)C)C(=O)O (centres unmarked) [Compound 45, 2-tert-Butoxy-2-(5-chloro-1-(4-chlorophenyl)-3-methylnaphthalen-2-yl)acetic acid] | 1800
12 | Cc1cc2c(-c3cncnc3)cccc2c(-c2ccc(Cl)cc2)c1C(OC(C)(C)C)C(=O)O (centres unmarked) [Compound 41, 2-tert-Butoxy-2-(1-(4-chlorophenyl)-3-methyl-5-(pyrimidin-5-yl)naphthalen-2-yl)acetic acid] | 400
13 | Cc1c(C(OC(C)(C)C)C(=O)O)c(-c2ccc(Cl)cc2)c2ccccc2c1-c1ccc(Cl)cc1 (centres unmarked) [Compound 140, 2-(1,4-Bis(4-chlorophenyl)-3-methylnaphthalen-2-yl)-2-tert-butoxyacetic acid] | 1600
14 | Cc1cc2ccccc2c(C2=CCCCC2)c1[C@H](OC(C)(C)C)C(=O)O [Compound 8, (S)-2-tert-Butoxy-2-(1-cyclohexenyl-3-methylnaphthalen-2-yl)acetic acid] | 25
15 | COc1ccc2c(-c3ccc(Cl)cc3)c(C(OC(C)(C)C)C(=O)O)c(C)cc2c1 (centres unmarked) [Compound 48, 2-tert-Butoxy-2-(1-(4-chlorophenyl)-6-methoxy-3-methylnaphthalen-2-yl)acetic acid] | 210
16 | Cc1c(C(OC(C)(C)C)C(=O)O)c(-c2ccc(Cl)cc2)c2ccccc2c1CN(C)C (centres unmarked) [Compound 133, 2-tert-Butoxy-2-(1-(4-chlorophenyl)-4-((dimethylamino)methyl)-3-methylnaphthalen-2-yl)acetic acid] | 123
17 | Cc1cc2c(C)cccc2c(-c2ccc(Cl)cc2)c1C(OC(C)(C)C)C(=O)O (centres unmarked) [Compound 40, 2-tert-Butoxy-2-(1-(4-chlorophenyl)-3,5-dimethylnaphthalen-2-yl)acetic acid] | 210
18 | Cc1c([C@H](OC(C)(C)C)C(=O)O)c(-c2ccc3c4c(ccnc24)CCO3)c2ccccc2c1C(N)=O [Compound 183, (S)-2-tert-butoxy-2-((R)-4-carbamoyl-1-(2,3-dihydropyrano[4,3,2-de]quinolin-7-yl)-3-methylnaphthalen-2-yl)acetic acid] | 351
19 | Cc1c(C(OC(C)(C)C)C(=O)O)c(-c2ccc(Cl)cc2)c2ccccc2c1C#N (centres unmarked) [Compound 147, 2-tert-Butoxy-2-(1-(4-chlorophenyl)-4-cyano-3-methylnaphthalen-2-yl)acetic acid] | 1100
20 | Cc1cc2cc(C(F)F)ccc2c(-c2ccc3c4c(ccnc24)CCO3)c1[C@H](OC(C)(C)C)C(=O)O [Compound 181, (S)-2-tert-butoxy-2-((R)-6-(difluoromethyl)-1-(2,3-dihydropyrano[4,3,2-de]quinolin-7-yl)-3-methylnaphthalen-2-yl)acetic acid] | 5
21 | Cc1cc2ccccc2c(-c2ccc3c4c2N(C)CCC4CCO3)c1[C@H](OC(C)(C)C)C(=O)O (stereo partly drawn) [Compound 22, (2S)-2-tert-Butoxy-2-(3-methyl-1-((7R)-6-methyl-2,3,3a,4,5,6-hexahydropyrano[4,3,2-de]quinolin-7-yl)naphthalen-2-yl)acetic acid] | 540
22 | Cc1cc2ccc(C#CC(C)(C)N)cc2c(-c2ccc(Cl)cc2)c1[C@H](OC(C)(C)C)C(=O)O [Compound 98, (S)-2-(7-(3-Amino-3-methylbut-1-ynyl)-1-(4-chlorophenyl)-3-methylnaphthalen-2-yl)-2-tert-butoxyacetic acid] | 10
23 | Cc1ccc2c(-c3ccc(Cl)cc3)c(C(OC(C)(C)C)C(=O)O)c(C)cc2c1 (centres unmarked) [Compound 58, 2-tert-Butoxy-2-(1-(4-chlorophenyl)-3,6-dimethylnaphthalen-2-yl)acetic acid] | 42
24 | Cc1c(C(OC(C)(C)C)C(=O)O)c(-c2ccc(Cl)cc2)c2ccccc2c1Br (centres unmarked) [Compound 126, 2-(4-Bromo-1-(4-chlorophenyl)-3-methylnaphthalen-2-yl)-2-tert-butoxyacetic acid] | 833
25 | Cc1cc2cc(-c3cncn3C)ccc2c(-c2ccc(Cl)cc2)c1[C@H](OC(C)(C)C)C(=O)O [Compound 65, (S)-2-tert-butoxy-2-(1-(4-chlorophenyl)-3-methyl-6-(1-methyl-1H-imidazol-5-yl)naphthalen-2-yl)acetic acid] | 190
26 | Cc1c(C(OC(C)(C)C)C(=O)O)c(-c2ccc(Cl)cc2)c2ccccc2c1-c1cnc(=O)[nH]c1 (centres unmarked) [Compound 146, 2-tert-Butoxy-2-(1-(4-chlorophenyl)-3-methyl-4-(2-oxo-1,2-dihydropyrimidin-5-yl)naphthalen-2-yl)acetic acid] | 10000
27 | Cc1cc2c(Cl)cc(F)cc2c(-c2ccc3c4c(ccnc24)CCO3)c1[C@H](OC(C)(C)C)C(=O)O [Compound 111, (2S)-2-tert-Butoxy-2-(5-chloro-1-(2,3-dihydropyrano[4,3,2-de]quinolin-7-yl)-7-fluoro-3-methylnaphthalen-2-yl)acetic acid] | 1100
28 | Cc1cc2ccc(C#CC3CCCC3)cc2c(-c2ccc(Cl)cc2)c1C(OC(C)(C)C)C(=O)O (centres unmarked) [Compound 74, 2-tert-Butoxy-2-(1-(4-chlorophenyl)-7-(cyclopentylethynyl)-3-methylnaphthalen-2-yl)acetic acid] | 1200

Same assay, conditions: MT-4 cells infected with HIV-IIIb (0.004 m.o.i.), 5 days of incubation, CellTiter-Glo chemiluminescence readout; read-out: EC50

Row | SMILES | EC50 [nM]
29 | Cc1cc2c(F)c(C)ccc2c(-c2ccc3c4c(ccnc24)CCO3)c1[C@H](OC(C)(C)C)C(=O)O [Compound 119, (S)-2-tert-Butoxy-2-((R)-1-(2,3-dihydropyrano[4,3,2-de]quinolin-7-yl)-5-fluoro-3,6-dimethylnaphthalen-2-yl)acetic acid] | 11
30 | Cc1ccc2c(-c3ccc4c5c(ccnc35)CCO4)c([C@H](OC(C)(C)C)C(=O)O)c(C)cc2c1 [Compound 68B, (S)-2-tert-Butoxy-2-((R)-1-(2,3-dihydropyrano[4,3,2-de]quinolin-7-yl)-3,6-dimethylnaphthalen-2-yl)acetic acid] | 5
31 | Cc1cc2ccccc2c(-c2ccc(C(F)(F)F)c3cccnc23)c1[C@H](OC(C)(C)C)C(=O)O [Compound 7D, (S)-2-tert-butoxy-2-((R)-3-methyl-1-(5-(trifluoromethyl)quinolin-8-yl)naphthalen-2-yl)acetic acid] | 1700
32 | Cc1cc2c(F)c(C(F)F)ccc2c(-c2ccc3c4c(ccnc24)CCO3)c1[C@H](OC(C)(C)C)C(=O)O [Compound 121, (S)-2-tert-Butoxy-2-((R)-6-(difluoromethyl)-1-(2,3-dihydropyrano[4,3,2-de]quinolin-7-yl)-5-fluoro-3-methylnaphthalen-2-yl)acetic acid] | 14
